How the values were obtained:
[1] = Solubility in water (stock preparation); format: physicochemical; details: for 40-mM stock
Protocol: Indeed, the inhibitions observed in violacein production for long alkyl chains (10–18, 20) were clearly correlated to the biocidal effect exerted by these compounds, with ‘therapeutic ratios’ (IC50 for growth inhibition/IC50 for violacein inhibition) around 1, in general (Table 2). Note that, as the length of the hydrocarbon chain becomes shorter, this ratio increased (8–9). […] To evaluate these compounds in further detail, […] stock solutions were prepared […] to avoid the use of high concentrations of DMSO in the bioassays. […] Serial two-fold dilutions (500–3.9 μM) were assayed. Consequently, the highest amount of DMSO used in the assay was 0.25% (v/v). […] Growth inhibitory effects are only observed at 500 μM, particularly for compound 7 (Fig 6D).

[2] = tested on: Mushroom tyrosinase; assay: Tyrosinase fluorescence quenching (fluorescence spectroscopy); format: binding, Agaricus bisporus; details: 280 nm excitation, 0–30 μM quencher
Protocol: Fluorescence measurements of tyrosinase solutions were performed using an Edinburgh Instruments LifeSpec II fluorescence spectrometer, exciting the complexes at 280 nm with an Edinburgh Instruments EPLED-280 subnanosecond pulsed diode source (typically pulse width at half maximum around 860 ps, repetition rate 10 MHz) and using Edinburg Instruments F900 acquisition software. A multichannel plate photomultiplier was used as the detector using single photon counting technique. Lifetime estimation was made using instrument response function (IRF) reconvolution analysis with FAST software by Edinburgh Instruments, providing a temporal resolution around 0.2 ns. A blank medium without enzyme was used to confirm that the collected fluorescence comes from the enzyme molecules and any influence of the fluorescence of the quencher and buffer components on the enzyme fluorescence is negligible. […]
Fluorescence of enzymes is very sensitive to conformational changes of the protein structure. The interaction of tyrosinase inhibitors can be evaluated by the analysis of the intrinsic tyrosinase fluorescence when tyrosinase and inhibitor (quencher) molecules are mixed in a solution. In particular, we have evaluated the effect of the tyrosinase inhibitor 16. Quenching of tyrosinase fluorescence is expected as a consequence of conformational alterations induced by the quencher. […]

[3] = target: Mushroom tyrosinase (EC 1.14.18.1) (Agaricus bisporus, UniProt C7FF04); assay: Tyrosinase inhibition assay (L-Dopa, dopachrome at 475 nm); format: biochemical; details: 15 and 30 μM inhibitor
Protocol: Tyrosinase inhibition assays were conducted as described in [52] with slight modifications. First, in order to characterize the Michaelis-Menten parameters of the enzyme kinetics, 100 μl of a mushroom tyrosinase solution (25 U) in sodium phosphate buffer (50 mM, pH 6.5) were pipetted in each well of a flat-bottom microtiter plate (Nunc 167008). Two-fold dilutions of L-Dopa, from 4.8 to 0.075 mM (final concentrations) were mixed (100 μl) with the enzyme solution. The enzymatic reaction was followed by measuring the absorbance at 475 nm every 30 s over 15 min, with shaking (150 rpm) between measurements. Temperature was kept constant at 30 °C. The values of KM and vmax under these conditions were obtained from Lineweaver-Burk plots. For tyrosinase inhibition assays, each well of the microtiter plate was filled with 100 μl of a mushroom tyrosinase solution and the appropriate amount of the test substance dissolved in DMSO. The compounds were pre-incubated with the enzyme at 30 °C for 10 min. Subsequently, the enzymatic reaction was triggered by addition of 100 μl of L-Dopa (1.2 mM test concentration). Formation of dopachrome was followed by measuring the absorbance at 475 nm as described above.

[4] = parameters: method as in earlier work; details: cited from earlier work

Mushroom tyrosinase (EC 1.14.18.1), sequence (G1K3P4 entry or part of it): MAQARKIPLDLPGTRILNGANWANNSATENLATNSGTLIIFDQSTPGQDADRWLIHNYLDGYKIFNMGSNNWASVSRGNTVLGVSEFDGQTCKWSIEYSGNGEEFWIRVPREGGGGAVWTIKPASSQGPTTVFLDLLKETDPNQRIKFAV
Mushroom tyrosinase (EC 1.14.18.1), sequence (C7FF04 1-392): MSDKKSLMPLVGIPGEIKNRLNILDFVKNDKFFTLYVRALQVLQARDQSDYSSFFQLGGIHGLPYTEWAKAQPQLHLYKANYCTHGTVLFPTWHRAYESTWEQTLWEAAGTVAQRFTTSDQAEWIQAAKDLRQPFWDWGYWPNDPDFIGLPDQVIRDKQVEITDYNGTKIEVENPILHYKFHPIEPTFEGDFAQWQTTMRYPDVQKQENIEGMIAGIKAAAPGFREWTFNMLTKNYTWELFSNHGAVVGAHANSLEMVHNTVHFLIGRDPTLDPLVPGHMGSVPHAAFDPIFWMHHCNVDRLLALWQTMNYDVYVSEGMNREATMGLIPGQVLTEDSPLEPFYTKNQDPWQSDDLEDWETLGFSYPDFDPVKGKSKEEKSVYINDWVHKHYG

With CCCCC[P+](c1ccccc1)(c1ccccc1)c1ccccc1 [Compound 7] the Solubility in water [1] was “poor solubility in water”.

In the case of CCCCCCCCCCCCCCCC[P+](c1ccccc1)(c1ccccc1)c1ccccc1 [Compound 16], the “Stern-Volmer quenching constant KSV” value [2] is listed as “about 4490 M^-1”, the “Type of tyrosinase inhibition (Lineweaver-Burk plots)” value [3] is listed as “non-competitive inhibition” and the cmc threshold [4] is listed as “around 100 μM”.

Reference: PMC4405350, “From Broad-Spectrum Biocides to Quorum Sensing Disruptors and Mussel Repellents: Antifouling Profile of Alkyl Triphenylphosphonium Salts” (PLoS ONE, 2015)
